The test system of series [1] is Acinetobacter baumannii. In words: Antibacterial activity against multidrug-resistant Acinetobacter baumannii assessed as inhibition of bacterial growth incubated for 24 hrs by broth dilution assay. It is filed as functional. (In general: Broth dilution looks for growth in wells or tubes with falling amounts of substance.)
Series [2] has as its system Acinetobacter baumannii. In words: Antibacterial activity against carbapenem-resistant Acinetobacter baumannii clinical isolate 3 assessed as inhibition of bacterial growth incubated for 24 hrs by broth dilution assay. The series is classed as functional.
In series [3] the test system is Acinetobacter baumannii. Kind of series: Antibacterial activity against carbapenem-resistant Acinetobacter baumannii clinical isolate 8 assessed as inhibition of bacterial growth incubated for 24 hrs by broth dilution assay. It is filed as functional.
Series [4] has as its system Acinetobacter baumannii. In words: Antibacterial activity against carbapenem-resistant Acinetobacter baumannii clinical isolate 1 assessed as inhibition of bacterial growth incubated for 24 hrs by broth dilution assay. The series is classed as functional.
The subject of series [5] is Acinetobacter baumannii. In words: Antibacterial activity against carbapenem-resistant Acinetobacter baumannii clinical isolate 2 assessed as inhibition of bacterial growth incubated for 24 hrs by broth dilution assay. The series is classed as functional.
In series [6] the target is Lipoteichoic acid. In words: Binding affinity to […] bacterial Lipoteichoic acid assessed as dissociation constant by BLI analysis. On the set-up: species or system Bacteria.
Series [7] can be described thus: Binding affinity to gram negative bacterial lipid II assessed as dissociation constant by BLI analysis. On the set-up: species or system Bacteria.
Series [8] concerns Acinetobacter baumannii. In words: Antibacterial activity against Acinetobacter baumannii ATCC 19606 assessed as inhibition of bacterial growth incubated for 24 hrs by broth dilution assay. The series is classed as functional.
Series [9] concerns Acinetobacter baumannii. Kind of series: Antibacterial activity against carbapenem-resistant Acinetobacter baumannii clinical isolate 6 assessed as bacterial killing at 3.16 microg/ml measured within 10 mins relative to control. It is filed as functional. The following applies: dose 3.16 µg/ml.
Series [10] concerns Acinetobacter baumannii. In words: Antibacterial activity against carbapenem-resistant Acinetobacter baumannii clinical isolate 4 assessed as inhibition of bacterial growth incubated for 24 hrs by broth dilution assay. The series is classed as functional.
For series [11], the system named is Acinetobacter baumannii. In words: Antibacterial activity against carbapenem-resistant Acinetobacter baumannii clinical isolate 5 assessed as inhibition of bacterial growth incubated for 24 hrs by broth dilution assay. The series is classed as functional.
The subject of series [12] is Acinetobacter baumannii. In words: Antibacterial activity against carbapenem-resistant Acinetobacter baumannii clinical isolate 6 assessed as inhibition of bacterial growth incubated for 24 hrs by broth dilution assay. The series is classed as functional.
Series [13] concerns Acinetobacter baumannii. Kind of series: Antibacterial activity against carbapenem-resistant Acinetobacter baumannii clinical isolate 7 assessed as inhibition of bacterial growth incubated for 24 hrs by broth dilution assay. The series is classed as functional.
In series [14] the test system is HaCaT. In words: Cytotoxicity against human HaCaT cells assessed as cell death up to 100 microg/ml measured upto 24 hrs. The series is classed as toxicity, cell-based. The following applies: dose < 100 µg/ml.
For series [15], the system named is Acinetobacter baumannii. In words: Antibacterial activity against carbapenem-resistant Acinetobacter baumannii clinical isolate 6 assessed as bacterial killing at 3.16 microg/ml measured for 1 hr in presence of NaCl. It is filed as functional, organism-based. The following applies: dose 3.16 µg/ml.
Series [16] relates to Staphylococcus aureus. In words: Antibacterial activity against Methicillin-resistant Staphylococcus aureus ATCC 43300 assessed as inhibition of bacterial growth incubated for 24 hrs by broth dilution assay. The series is classed as functional.
Series [17] relates to Staphylococcus aureus. In words: Antibacterial activity against Staphylococcus aureus […] assessed as inhibition of bacterial growth incubated for 24 hrs by broth dilution assay. It is filed as functional.

The source made the active and inactive calls. The calls are words filed in the database; no cut-off is given here. Positions of bridges follow the written chain, without caps; N, C: chain ends. Non-standard residues stand in square brackets, D forms with d. Residues, ends and D or L forms follow the SMILES beside them. S5 = C=CCCC[C@](C)(N)C(=O)O A value given as a limit tells only on which side of the number the result lay.

The MIC is the lowest concentration found to suppress growth. In general, Kd refers to the constant that tells how readily two partners part at equilibrium. With H-KRIVQRIKDFLR-OH, the MIC in series [1] was 160 µg/mL; in series [2], 320 µg/mL; in series [3] it was 160 µg/mL; in [4] it was 320 µg/mL; in series [5], 320 µg/mL; in [8], above 320 µg/mL. For the same compound, the minimum inhibitory concentration (MIC) was 160 µg/mL in series [10]; 160 µg/mL in series [11]; 160 µg/mL in series [12]; 160 µg/mL in series [13]; above 320 µg/mL in [16]; above 320 µg/mL in series [17]. Also, the figures for the dissociation constant (Kd) in [6] and in series [7] were 241 nM and 171 nM, respectively. Moreover, the Activity in [9] is recorded as 19.5%; in series [14] it was “Non-toxic”. For the same compound, the result in [15] was inactive.

Regarding `CC[C@H](C)[C@@H]1NC(=O)[C@H](CCCCN)NC(=O)[C@@](C)(NC(=O)[C@H](CCCNC(=N)N)NC(=O)[C@H](CCCNC(=N)N)NC(=O)[C@@H](NC(=O)[C@@H](NC(=O)[C@H](CCCNC(=N)N)NC(=O)[C@@H](N)CCCCN)[C@@H](C)CC)C(C)C)CCC/C=C\CCC[C@@](C)(C(=O)N[C@@H](CCCNC(=N)N)C(=O)O)NC(=O)[C@H](Cc2ccccc2)NC1=O` (H-KRIVRR[S5]KIF[S5]R-OH; staple (Z) 7-11), the minimal inhibitory concentration (MIC) in series [1], in series [8], in series [16] and in series [17] was above 320 µg/mL throughout.

Values taken from ChEMBL document CHEMBL6109103, “Dodecapeptides derived from human cathelicidin with potent activity against carbapenem-resistant Acinetobacter baumannii” (Eur J Med Chem, 2025).
